Data published in patent US7993668B2, “Nutrient composition and composition for prevention/mitigation of digestive tract depression” (Ajinomoto Co., Inc., priority 2004, dated 2011).

Tested on: male rat
Assay: Onset of diarrhea due to intragastric administration of an elemental diet in fasted rats (stool state ranked 1-4)
Format: in vivo
From the text: According to a conventional method, under pentobarbital anesthesia, a catheter for elemental diet administration was inserted by operation in the stomach of a male rat (body weight about 270 g), and a recovery period of one week was given. For breeding, a regular rat feed and tap water were given, and free intake was allowed. After confirmation of recovery, the rat was fasted three nights to induce lower gastrointestinal function. The fasting schedule on the day before operation, the operation day and the day after operation in the case of surgery patients was imitated.
On the day of the test, the rats were divided into 3 groups, each rat was moved to a separate observation cage, and the onset of diarrhea due to the administration of an elemental diet shown below was observed. First, one pack (80 g) of elemental diet having the composition shown in Table 1 was dissolved in water (300 cc) and prepared to show 1 kcal/cc, which was used as elemental diet 1. Three groups of an elemental diet 1 administration group as a control, an elemental diet 2 administration group, to which 1.0 w/v % (0.88 w/v % as free glutamic acid) of sodium glutamate (MSG) was added, and an elemental diet 3 administration group, to which sodium chloride (0.35 w/v %) was added, were compared. Each test elemental diet was administered using an electric pump via the catheter inserted into the stomach. The administration was started from 10:30 AM and intermittently administered 4 times per hr at 7 mL/hr. Each test elemental diet administered to one rat was 28 mL in total. The state of stool was observed from the start of the administration until 10:30 AM the next morning and, based on the severity of the symptom, ranked in 4 levels of 1. normal stool or no stool, 2, soft stool (shape was maintained), 3, muddy stool (no shape) and 4, watery stool.
A method according to Example 1 was employed. […] Each test elemental diet was administered using an electric pump via the catheter inserted into the stomach.
A method according to Example 1 was employed. Three groups of an elemental diet 1 administration group having the composition shown in a separate table as a control, an elemental diet 6 administration group, to which 0.04 w/v % (0.036 w/v % as free guanylic acid) of sodium guanylate (GMP) was added, and an elemental diet 7 administration group, to which 0.20 w/v % (0.18 w/v % as free guanylic acid) was added, were compared. Each test elemental diet was administered using an electric pump via the catheter inserted into the stomach.

[1] = Example 1, elemental diet 3 with 0.35 w/v % sodium chloride, out of 11 cases
[2] = Example 3, elemental diet 6 with 0.04 w/v % sodium guanylate, out of 13 cases
[3] = Example 3, elemental diet 7 with 0.20 w/v % sodium guanylate, out of 13 cases

## N[C@@H](CCC(=O)[O-])C(=O)[O-].[Na+].[Na+] [sodium glutamate]
Example 1, 1.0 w/v % sodium glutamate, Kruskal-Wallis, p<0.05
  improvement of diarrhea (stool rank) vs non-addition group: significant improvement effect
po
  rank 2 soft stool observed: 1 case
  rank 3 muddy stool observed: 2 cases

## [Cl-].[Na+] [sodium chloride, reference compound]
[1]
  rank 1 observed: 1 case
  rank 3 observed: 6 cases

## Nc1nc2c(ncn2[C@@H]2O[C@H](COP(=O)([O-])[O-])[C@@H](O)[C@H]2O)c(=O)[nH]1.[Na+].[Na+] [sodium guanylate]
Example 3, elemental diet 6 with 0.04 w/v % sodium guanylate (0.036 w/v % as free guanylic acid), out of 13 cases
  rank 1 normal stool or no stool observed: 3 cases
[2]
  rank 2 soft stool observed: 1 case
  rank 4 watery stool observed: 9 cases
Example 3, elemental diet 7 with 0.20 w/v % sodium guanylate (0.18 w/v % as free guanylic acid), out of 13 cases
  rank 1 normal stool or no stool observed: 3 cases
[3]
  rank 2 soft stool observed: 1 case
  rank 4 watery stool observed: 9 cases
Example 3, sodium guanylate 0.04 and 0.20 w/v % addition groups vs non-addition group
  diarrhea symptom-improving effect by the addition: diarrhea symptom-improving effect was considered to be observed
